Measurements from patent US20250228239A1, “MOLECULES HAVING PESTICIDAL UTILITY, AND INTERMEDIATES, COMPOSITIONS, AND PROCESSES, RELATED THERETO” (priority 2024, published 2025).

What was measured:
Type in all cases: in vivo
[1] = tested on: Yellow Fever Mosquito (Aedes aegypti, AEDSAE); settings: Yellow Fever Mosquito, Table ABC / ABC-DP rating
Method in brief: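 Mortality after 3 days at room temperature is the read-out, scored well by well and converted to a rating. Test molecules came from 4000 ppm stocks in DMSO, further diluted in 90:10 water/acetone, and were exposed to roughly 1-day-old larvae suspended in liver-powder water.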

[2] = tested on: Cabbage Looper (Trichoplusia ni, TRIPNI); assay: Bioassays on Cabbage Looper (CL), 128-well diet tray assay; settings: Trichoplusia ni; Cabbage Looper, Table ABC / ABC-DP rating; read-out: CL rating
Method in brief: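 Diet tray, 2nd instar, 1–5 larvae/well; 50 μg/cm^2 compound surface-applied (acetone:water 90:10), dried; 8 wells/treatment; 25° C, 14:10 L:D, 5–7 d; % mortality, mean of 8 wells.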

[3] = tested on: Beet Armyworm (Spodoptera exigua, LAPHEG); assay: Bioassays on Beet Armyworm (BAW), 128-well diet tray assay; settings: Spodoptera exigua; Beet Armyworm, Table ABC / ABC-DP rating; read-out: BAW rating
Method in brief: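 Percent larval mortality, averaged across eight wells, scored after five to seven days at 25° C. under 14:10 light-dark. Each well held one to five second instars feeding on diet dosed at 50 μg/cm^2 with compound from 90:10 acetone-water, solvent dried off.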

SMILES	YFM rating [1]	pest or weed control at 50 µg/cm2 [2]	pest or weed control at 50 µg/cm2 [3]
O=C(NCCNC(=O)C(F)(F)F)c1cc(NC(=O)[C@H]2[C@H](c3cc(Cl)cc(Cl)c3)C2(Cl)Cl)ccc1Cl (relative stereo) [F2066, trans-2-Chloro-5-(2,2-dichloro-3-(3,5-dichlorophenyl)cyclopropane-1-carboxamido)-N-(2-(2,2,2-trifluoroacetamido)ethyl)benzamide]	A (80–100)	50 to 100%	50 to 100%
CC(=O)NCCCNC(=O)c1cc(NC(=O)[C@H]2[C@H](c3cc(Cl)cc(Cl)c3)C2(Cl)Cl)ccc1Cl (relative stereo) [F2067, trans-N-(3-Acetamidopropyl)-2-chloro-5-(2,2-dichloro-3-(3,5-dichlorophenyl)cyclopropane-1-carboxamido)benzamide]	A (80–100)	50 to 100%	50 to 100%
CC(=O)NCCCCNC(=O)c1cc(NC(=O)[C@H]2[C@H](c3cc(Cl)cc(Cl)c3)C2(Cl)Cl)ccc1Cl (relative stereo) [F2068, trans-N-(4-Acetamidobutyl)-2-chloro-5-(2,2-dichloro-3-(3,5-dichlorophenyl)cyclopropane-1-carboxamido)benzamide]	A (80–100)	50 to 100%	50 to 100%
CC(=O)NCCCCCNC(=O)c1cc(NC(=O)[C@H]2[C@H](c3cc(Cl)cc(Cl)c3)C2(Cl)Cl)ccc1Cl (relative stereo) [F2069, trans-N-(5-Acetamidopentyl)-2-chloro-5-(2,2-dichloro-3-(3,5-dichlorophenyl)cyclopropane-1-carboxamido)benzamide]	A (80–100)	50 to 100%	50 to 100%
CNC(=O)CCNC(=O)c1cc(NC(=O)[C@H]2[C@H](c3cc(Cl)cc(Cl)c3)C2(Cl)Cl)ccc1Cl (relative stereo) [F2070, trans-2-Chloro-5-(2,2-dichloro-3-(3,5-dichlorophenyl)cyclopropane-1-carboxamido)-N-(3-(methylamino)-3-oxopropyl)benzamide]	A (80–100)	50 to 100%	50 to 100%
O=C(NCC(F)(F)c1ccccc1)c1cc(NC(=O)[C@H]2[C@H](c3cc(Cl)cc(Cl)c3)C2(Cl)Cl)ccc1Cl (relative stereo) [F2077, trans-2-Chloro-5-(2,2-dichloro-3-(3,5-dichlorophenyl)cyclopropane-1-carboxamido)-N-(2,2-difluoro-2-phenylethyl)benzamide]	B (More than 0 – Less than 80)	50 to 100%	50 to 100%
CCC(F)(F)CNC(=O)c1cc(NC(=O)[C@H]2[C@H](c3cc(Cl)cc(Cl)c3)C2(Cl)Cl)ccc1Cl (relative stereo) [F2086, trans-2-Chloro-5-(2,2-dichloro-3-(3,5-dichlorophenyl)cyclopropane-1-carboxamido)-N-(2,2-difluorobutyl)benzamide]	A (80–100)	50 to 100%	50 to 100%
CCC(F)(F)CNC(=O)c1cc(NC(=O)[C@H]2[C@H](c3cc(Cl)cc(Cl)c3)C2(Cl)Cl)cc(F)c1Cl (relative stereo) [F2088, trans-2-Chloro-5-(2,2-dichloro-3-(3,5-dichlorophenyl)cyclopropane-1-carboxamido)-N-(2,2-difluorobutyl)-3-fluorobenzamide]	B (More than 0 – Less than 80)	50 to 100%	50 to 100%
CCOC(=O)C(F)(F)CNC(=O)c1cc(NC(=O)[C@H]2[C@H](c3cc(Cl)cc(Cl)c3)C2(Cl)Cl)cc(F)c1Cl (relative stereo) [F2089, trans-Ethyl 3-(2-chloro-5-(2,2-dichloro-3-(3,5-dichlorophenyl)cyclopropane-1-carboxamido)-3-fluorobenzamido)-2,2-difluoropropanoate]	A (80–100)	50 to 100%	50 to 100%
CC(=O)CNC(=O)c1cc(NC(=O)[C@H]2[C@H](c3cc(Cl)cc(Cl)c3)C2(Cl)Cl)cc(F)c1Cl (relative stereo) [F2090, trans-2-Chloro-5-(2,2-dichloro-3-(3,5-dichlorophenyl)cyclopropane-1-carboxamido)-3-fluoro-N-(2-oxopropyl)benzamide]	A (80–100)	50 to 100%	50 to 100%
O=C(NCC(F)(F)c1ccccc1)c1cc(NC(=O)[C@H]2[C@H](c3cc(Cl)cc(Cl)c3)C2(Cl)Cl)cc(F)c1Cl (relative stereo) [F2091, trans-2-Chloro-5-(2,2-dichloro-3-(3,5-dichlorophenyl)cyclopropane-1-carboxamido)-N-(2,2-difluoro-2-phenylethyl)-3-fluorobenzamide]	A (80–100)	50 to 100%	50 to 100%
O=C(CCNC(=O)c1cc(NC(=O)[C@H]2[C@H](c3cc(Cl)cc(Cl)c3)C2(Cl)Cl)ccc1Cl)NCCC(F)(F)F (relative stereo) [F2092, trans-2-Chloro-5-(2,2-dichloro-3-(3,5-dichlorophenyl)cyclopropane-1-carboxamido)-N-(3-oxo-3-(3,3,3-trifluoropropylamino)propyl)benzamide]	B (More than 0 – Less than 80)	50 to 100%	50 to 100%
O=C(CCCNC(=O)c1cc(NC(=O)[C@H]2[C@H](c3cc(Cl)cc(Cl)c3)C2(Cl)Cl)ccc1Cl)NCCC(F)(F)F (relative stereo) [F2093, trans-2-Chloro-5-(2,2-dichloro-3-(3,5-dichlorophenyl)cyclopropanecarboxamido)-N-(4-oxo-4-(3,3,3-trifluoropropylamino)butyl)benzamide]	B (More than 0 – Less than 80)	50 to 100%	50 to 100%
O=C(NCCCNC(=O)C(F)(F)F)c1cc(NC(=O)[C@H]2[C@H](c3cc(Cl)cc(Cl)c3)C2(Cl)Cl)ccc1Cl (relative stereo) [F2094, trans-2-Chloro-5-(2,2-dichloro-3-(3,5-dichlorophenyl)cyclopropane-1-carboxamido)-N-(3-(2,2,2-trifluoroacetamido)propyl)benzamide]	B (More than 0 – Less than 80)	50 to 100%	50 to 100%
O=C(NCCCCNC(=O)C(F)(F)F)c1cc(NC(=O)[C@H]2[C@H](c3cc(Cl)cc(Cl)c3)C2(Cl)Cl)ccc1Cl (relative stereo) [F2095, trans-2-Chloro-5-(2,2-dichloro-3-(3,5-dichlorophenyl)cyclopropane-1-carboxamido)-N-(4-(2,2,2-trifluoroacetamido)butyl)benzamide]	A (80–100)	50 to 100%	50 to 100%
O=C(NCCNC(=O)C(F)(F)C(F)(F)F)c1cc(NC(=O)[C@H]2[C@H](c3cc(Cl)cc(Cl)c3)C2(Cl)Cl)ccc1Cl (relative stereo) [F2096, trans-2-Chloro-5-(2,2-dichloro-3-(3,5-dichlorophenyl)cyclopropane-1-carboxamido)-N-(2-(2,2,3,3,3-pentafluoropropanamido)ethyl)benzamide]	B (More than 0 – Less than 80)	50 to 100%	50 to 100%
O=C(NCCCNC(=O)C(F)(F)C(F)(F)F)c1cc(NC(=O)[C@H]2[C@H](c3cc(Cl)cc(Cl)c3)C2(Cl)Cl)ccc1Cl (relative stereo) [F2097, trans-2-Chloro-5-(2,2-dichloro-3-(3,5-dichlorophenyl)cyclopropane-1-carboxamido)-N-(3-(2,2,3,3,3-pentafluoropropanamido)propyl)benzamide]	A (80–100)	50 to 100%	50 to 100%
O=C(NCCCCNC(=O)C(F)(F)C(F)(F)F)c1cc(NC(=O)[C@H]2[C@H](c3cc(Cl)cc(Cl)c3)C2(Cl)Cl)ccc1Cl (relative stereo) [F2098, trans-2-Chloro-5-(2,2-dichloro-3-(3,5-dichlorophenyl)cyclopropane-1-carboxamido)-N-(4-(2,2,3,3,3-pentafluoropropanamido)butyl)benzamide]	B (More than 0 – Less than 80)	50 to 100%	50 to 100%
O=C(NNc1ccccn1)c1cc(NC(=O)[C@H]2[C@H](c3cc(Cl)cc(Cl)c3)C2(Cl)Cl)ccc1Cl (relative stereo) [F2502, trans-2,2-dichloro-N-(4-chloro-3-(2-(pyridin-2-yl)hydrazine-1-carbonyl)phenyl)-3-(3,5-dichlorophenyl)cyclopropane-1-carboxamide]	A (80–100)	50 to 100%	50 to 100%
O=C(NNc1ccc(Cl)cn1)c1cc(NC(=O)[C@H]2[C@H](c3cc(Cl)cc(Cl)c3)C2(Cl)Cl)ccc1Cl (relative stereo) [F2504, trans-2,2-Dichloro-N-(4-chloro-3-(2-(5-chloropyridin-2-yl)hydrazine-1-carbonyl)phenyl)-3-(3,5-dichlorophenyl)cyclopropane-1-carboxamide]	A (80–100)	50 to 100%	50 to 100%
